Results: patent US12023408B2, “Amorphous efinaconazole solid dispersion” (DAEBONG LS CO., LTD., priority 2019, dated 2024)

Experiment: Test for the content of related substances (stability in solution, HPLC)
Type: physicochemical
Details: dissolved in a solution
Method: Experimental Example 1—Test for the Content of Related Substances […] Thereafter, the contents of related substances were measured by high-performance liquid chromatography (HPLC). The same procedure was repeated except that crystalline efinaconazole was used instead of the solid dispersion.

content of related substances (oven at 65° C., 0 (initial)): 0 | content of related substances (oven at 65° C., 1 week): 0.45% | content of related substances (oven at 65° C., 2 weeks): 0.54% | content of related substances (oven at 65° C., 4 weeks): 1.53% | content of related substances (room temperature, 0 (initial)): 0 | content of related substances (room temperature, 1 week): 0.27% | content of related substances (room temperature, 2 weeks): 0.39% | content of related substances (room temperature, 4 weeks): 0.40%
SMILES: C=C1CCN([C@H](C)[C@](O)(Cn2cncn2)c2ccc(F)cc2F)CC1 [Efinaconazole, (2R,3R)-2-(2,4-difluorophenyl)-3-(4-methylenepiperidin-1-yl)-1-(1H-1,2,4-triazol-1-yl)butan-2-ol]
